Tested on: Monocotyledonous and dicotyledonous test plants
Experiment: Post-emergence herbicidal action
Format: in vivo
Details: evaluated after approximately 18 days; for Post-emergence action, Ipomoea / Post-emergence action, Lolium / Post-emergence action, Setaria / Post-emergence action, Sinapis / Post-emergence action, Solanum / Post-emergence action, Stellaria: 2000 g/ha, sprayed in 4- to 6-leaf stage, nine-step scale; for Post-emergence action: Abutilon (score, nine-step scale) / Post-emergence action: Chenop. (score, nine-step scale) / Post-emergence action: Digitaria (score, nine-step scale) / Post-emergence action: Echino. (score, nine-step scale) / Post-emergence action: Ipopur. (score, nine-step scale) / Post-emergence action: Panicum (score, nine-step scale) / Post-emergence action: Xanth. (score, nine-step scale): 250 g/ha, sprayed at 4- to 6-leaf stage
Method: Monocotyledonous and dicotyledonous test plants are grown in the greenhouse in plastic pots containing standard soil, and, in the 4- to 6-leaf stage, sprayed with an aqueous suspension of the test substances of the formula I prepared with a 25% wettable powder (Example F3, b) in accordance with WO 97/34485) or with an emulsion of the test substances of the formula I prepared with a 25% emulsion concentrate (Example F1, c) in accordance with WO 97/34485), corresponding to a rate of 2 kg of a.i./ha or 250 g of a.i./ha (500 l of water/ha). The test plants are subsequently grown on in the greenhouse under optimal conditions. After a test period of approximately 18 days, the test is evaluated with reference to a nine-step scale (1=complete damage, 9=no effect). Score figures of 1 to 4 (in particular 1 to 3) mean a good to very good herbicidal action. In this test, the compounds of the formula I show a potent herbicidal action.

Structure (SMILES)	Post-emergence action, Ipomoea	Post-emergence action, Lolium	Post-emergence action, Setaria	Post-emergence action, Sinapis	Post-emergence action, Solanum	Post-emergence action, Stellaria	Post-emergence action: Abutilon (score, nine-step scale)	Post-emergence action: Chenop. (score, nine-step scale)	Post-emergence action: Digitaria (score, nine-step scale)	Post-emergence action: Echino. (score, nine-step scale)	Post-emergence action: Ipopur. (score, nine-step scale)	Post-emergence action: Panicum (score, nine-step scale)	Post-emergence action: Xanth. (score, nine-step scale)
Cc1nc(C(F)(F)F)ccc1C(=O)C1=C(O)C(C(C)C)CCC1=O (stereo not drawn) [Compound A2-B5]	1	2	2	1	2	2							
Cc1c(C(=O)C2=C(O)CCCC2=O)ccc(C(F)(F)F)[n+]1[O-] [Compound A1210-B1, 3-Hydroxy-2-(2-methyl-1-oxy-6-trifluoromethylpyridine-3-carbonyl)cyclohex-2-enone]							2	1	2	2	2	2	2
Cc1nc(C(F)(F)F)ccc1C(=O)C1=C(O)CCC2(CCCCCC2)C1=O [Compound A2-C149]	1	3	2	1	2	2							
Cc1nc(C(F)(F)C(F)(F)C(F)(F)F)ccc1C(=O)C1=C(O)CCCC1=O [Compound A64-B1]	2	3	4	1	1	2							
Cc1nc(C(F)(F)C(F)(F)F)ccc1C(=O)C1=C(O)C(C)(C)CCC1=O [Compound A34-B24]	1	2	2	1	2	2							
COC(=O)C1C(O)=C(C(=O)c2ccc(C(F)(F)F)nc2C)C(=O)CC1(C)C (stereo not drawn) [Compound A2-B1094]							3	2	3	2	3	2	3
CCN(CC)CC.Cc1nc(C(F)(F)F)ccc1C(=O)C1=C(O)CC(C)CC1=O (stereo not drawn) [Compound A2-B1101]	2	2	2	1	1	3							
COCc1nc(C(F)(F)F)ccc1C(=O)C1=C(O)CC(C)CC1=O (stereo not drawn) [Compound A8-B133]	2	4	2	1	2	2							
CCC1(CC)CCC(=O)C(C(=O)c2ccc(C(F)(F)F)nc2C)=C1O [Compound A2-B112]	2	3	2	1	2	2							
CCCC1(C)CC(C)C(=O)C(C(=O)c2ccc(C(F)(F)F)nc2C)=C1O (stereo not drawn) [Compound A2-B70]	3	4	3	1	2	2							
CSC1(C)CCC(=O)C(C(=O)c2ccc(C(F)(F)F)nc2C)=C1O (stereo not drawn) [Compound A2-B29]	2	3	2	1	2	2							
CCSC1(CC)CC(C)C(=O)C(C(=O)c2ccc(C(F)(F)F)nc2C)=C1O (stereo not drawn) [Compound A2-B1091]							3	3	4	2	3	4	4
COCc1nc(C(F)(F)F)ccc1C(=O)C1=C(O)CCC=C(C)C1=O [Compound A8-F5]							3	3	3	4	3	4	3
Cc1nc(C(F)(F)F)ccc1C(=O)C1=C(O)CCC2(CCOC2=O)C1=O (stereo not drawn) [Compound A2-E16]	2	3	2	2	2	2							
COCc1nc(C(F)(F)F)ccc1C(=O)C1=C(O)C(C)C(C)CC1=O (stereo not drawn) [Compound A8-B134]							2	2	3	3	3	3	3
CC1=CCCC(O)=C(C(=O)c2ccc(C(F)(F)F)nc2C)C1=O [Compound A2-F5, 3-Hydroxy-7-methyl-2-(2-methyl-6-trifluoromethyloyridine-3-carbonyl)cyclohepta-2,6-dienone]							3	3	3	3	4	3	3
COC(=O)C1(C)C(O)=C(C(=O)c2ccc(C(F)(F)F)nc2C)C(=O)CC1(C)C (stereo not drawn) [Compound A2-B1087]	1	4	3	1	2	2							
CCC1(CC)CC(C)C(=O)C(C(=O)c2ccc(C(F)(F)F)nc2C)=C1O (stereo not drawn) [Compound A2-B1093]	2	2	2	1	2	2							
Cc1nc(C(F)(F)F)ccc1C(=O)C1=C(O)CC(c2ccccc2)CC1=O (stereo not drawn) [Compound A2-B1058]	1	2	4	1	2	2							
CCCc1nc(C(F)(F)F)ccc1C(=O)C1=C(O)C(C)(C)CCC1=O [Compound A7-B24]	1	2	2	1	2	2							

From patent publication US6673938B1, “Substituted pyridine herbicides” (Syngenta Participations AG, priority 1998, dated 2004)
